Measured values as given in paper PMC4401630 (Clinical cancer research : an official journal of the …, 2015).
Where “and” joins values, the source holds several entries; their conditions need not be identical. Equal entries are not always repeated.

Legend:
[1] = system: resectable non-small cell lung cancer (NSCLC); assay: Metabolic response on paired 18F-FDG PET/CT; type: in vivo, human; settings: for Change in metabolic activity (SUVmax): up to 28 days, control 29.0%; for Change in metabolic activity (SUVmax) / Mean reduction in SUVmax (percent change of initial SUVmax): p=0.014; for Mean reduction in SUVmax (percent change of initial SUVmax): control mean increase of 29%
[2] = system: resectable non-small cell lung cancer (NSCLC); assay: Anatomic response, tumor size; type: in vivo, human
S6 = assay: Immunohistochemistry of paired tumor tissues; type: in vivo, human; settings: mean (±SD)
[3] = system: phospho-S6 Ser235/236 (pS6); assay: Immunohistochemistry of paired tumor tissues; type: in vivo, human; settings: mean (±SD)
pS6/S6 = assay: Immunohistochemistry of paired tumor tissues; type: in vivo, human; settings: mean (±SD)
[4] = system: phospho-mTOR Ser2448 (pMTOR); assay: Immunohistochemistry of paired tumor tissues; type: in vivo, human; settings: mean (±SD)
[5] = system: phospho-4E-BP1 Thr37/46 (p4E-BP1); assay: Immunohistochemistry of paired tumor tissues; type: in vivo, human; settings: mean (±SD)
p70S6K = assay: Immunohistochemistry of paired tumor tissues; type: in vivo, human; settings: mean (±SD)
[6] = system: phospho-eIF4E Ser209 (pe1f4e); assay: Immunohistochemistry of paired tumor tissues; type: in vivo, human; settings: mean (±SD)
[7] = system: phospho-Akt Ser473 (pAKT); assay: Immunohistochemistry of tumor tissues; type: in vivo, human
[8] = Safety: treatment-emergent adverse events; type: in vivo, human
BCL2L-11 gene = assay: Gene expression profiling by RNA-Seq, baseline vs post-treatment tumor; type: in vivo, human; settings: responder with sarcomatoid NSCLC, 10mg everolimus
Bim = assay: Immunohistochemistry of tumor tissues; settings: for BIM expression immunoscore in post-treatment samples: control 48.6
[9] = Everolimus pharmacokinetic analysis in whole blood; settings: for Tmax: NSCLC patients
[10] = dose of everolimus 5, listed as Everolimus
[11] = dose of everolimus 10, listed as Everolimus
[12] = dose of everolimus 10, mean (±SD)
[13] = human, whole blood, oral, 10 mg

Q: Which results are given for `CO[C@H]1C[C@@H]2CC[C@@H](C)[C@@](O)(O2)C(=O)C(=O)N2CCCC[C@H]2C(=O)O[C@H]([C@H](C)C[C@@H]2CC[C@@H](OCCO)[C@H](OC)C2)CC(=O)[C@H](C)/C=C(\C)[C@@H](O)[C@@H](OC)C(=O)[C@H](C)C[C@H](C)/C=C/C=C/C=C/1C` [everolimus]?
A: Change in metabolic activity (SUVmax) ([1]; 5mg cohort): −21%; Partial metabolic response (PMR) rate, PERCIST ([1]; 5mg everolimus group): 36%; Stable metabolic disease (SMD) rate, PERCIST ([1]; 5mg everolimus group): 64%; Change in metabolic activity (SUVmax) ([1]; 10mg cohort): −24%; Partial metabolic response (PMR) rate, PERCIST ([1]; 10mg everolimus group): 50%; Stable metabolic disease (SMD) rate, PERCIST ([1]; 10mg everolimus group): 50%; Reduction in mean metabolic activity, RAS mutant tumors ([1]; RAS mutant tumors treated with everolimus (10mg), control 88% increase, p=0.218): 30%; Mean reduction in SUVmax (percent change of initial SUVmax) ([1]; everolimus 5mg): 21%; Mean reduction in SUVmax (percent change of initial SUVmax) ([1]; everolimus 10mg): 24%; Reduction in metabolic activity, non-RAS mutant tumors ([1]; everolimus (10mg) group, control 12% increase, p=0.039): 21%; Reduction in SUVmax, single patient (near complete metabolic response) ([1]; one patient, sarcomatoid NSCLC, 10mg everolimus for 3 weeks): 74%; Patients achieving SD (RECIST) ([2]; 5mg everolimus): 82%; Patients with best response of PD (RECIST) ([2]; 5mg everolimus): 18%; Change in tumor size ([2]; 10mg cohort, control 10.1%, p=0.047): −11.6%; Patients meeting RECIST criteria for partial response ([2]; 10mg everolimus group): 9%; Patients with SD (RECIST) ([2]; 10mg everolimus group): 91%; Tumor shrinkage in partial response ([2]; 10mg everolimus group, partial response): 30%; S6 percent change in immunoscore, post-treatment relative to baseline (S6; dose of everolimus 5): −13.7%; S6 percent change in immunoscore, post-treatment relative to baseline (S6; [10]): −13.69 (± 144.05) %; S6 percent change in immunoscore, post-treatment relative to baseline (S6; dose of everolimus 10): −77.0% and −77.03%; S6 percent change in immunoscore, post-treatment relative to baseline (S6; [11]): −77.03 (± 16.02) %; pS6 percent change in immunoscore, post-treatment relative to baseline ([3]; dose of everolimus 5): −61.57%; pS6 percent change in immunoscore, post-treatment relative to baseline [3, 10]: −61.57 (± 35.8) %; pS6 percent change in immunoscore, post-treatment relative to baseline ([3]; dose of everolimus 10): −47.21%; pS6 percent change in immunoscore, post-treatment relative to baseline [3, 11]: −47.21 (± 44.96) %; pS6/S6 percent change, post-treatment relative to baseline (pS6/S6; dose of everolimus 5): −100 (±NA) %; pS6/S6 percent change, post-treatment relative to baseline (pS6/S6; dose of everolimus 10): 128.57 (± 219.26) %; pMTOR percent change in immunoscore, post-treatment relative to baseline ([4]; dose of everolimus 5): 30 (± 153.95) %; pMTOR percent change in immunoscore, post-treatment relative to baseline ([4]; dose of everolimus 10): −63.82 (± 51.3) %; p4E-BP1 percent change in immunoscore, post-treatment relative to baseline ([5]; dose of everolimus 5): 150 (±NA) %; p4E-BP1 percent change in immunoscore, post-treatment relative to baseline ([5]; dose of everolimus 10): −78.75 (± 14.36) %; p70s6k percent change in immunoscore, post-treatment relative to baseline (p70S6K; dose of everolimus 5): 137.14 (± 442.07) %; p70s6k percent change in immunoscore, post-treatment relative to baseline (p70S6K; dose of everolimus 10): −78.62 (± 22.79) %; pe1f4e percent change in immunoscore, post-treatment relative to baseline ([6]; dose of everolimus 5): 2.78 (± 5.56) %; pe1f4e percent change in immunoscore, post-treatment relative to baseline ([6]; dose of everolimus 10): −27.13 (± 42.17) %; Unmatched mean immunoscore, nuclear pAKT staining, post-treatment ([7]; 5 mg cohort, baseline 0.3): 15; Unmatched mean immunoscore, cytoplasmic pAKT staining, post-treatment ([7]; 5 mg cohort, baseline 13.1): 47.5; Unmatched mean immunoscore, nuclear pAKT staining, post-treatment ([7]; 10 mg cohort, baseline 0.01): 4.4; Unmatched mean immunoscore, cytoplasmic pAKT staining, post-treatment ([7]; 10 mg cohort, baseline 0.42): 2.34; PAKT Nuclear percent change in immunoscore, post-treatment relative to baseline [7, 12]: 0 (± 0) %; MRSA Bacteremia, Grade 3 ([8]; CTCAE version 3, patients treated with everolimus (5 or 10 mg daily)): 1; Median length of hospital stay (LOS) after resection ([8]; in vivo): 5 days; Range of length of hospital stay (LOS) after resection ([8]; in vivo): 3 to 43 days; Increase in BCL2L-11 gene (BIM) expression, post-treatment vs baseline sample (BCL2L-11 gene): 6 fold; BIM expression immunoscore in post-treatment samples (Bim; 5mg everolimus): 84.3; BIM expression immunoscore in post-treatment samples (Bim; 10mg everolimus): 80.5; Bim percent change in immunoscore, post-treatment relative to baseline (Bim; [12]): −21.76 (± 60.07) %; BIM expression immunoscore, treated compared to control patients (Bim; post-treatment samples, treated patients vs control): ~2 fold; Tmax ([9]; 5 mg daily (n=12), whole blood): 2 (1 – 2) hr.; Day 21 Cmax ([9]; 10 mg daily (n=7), whole blood): 0.0515 ± 0.0099 µg/mL; Tmax ([9]; 10 mg daily (n=7), whole blood): 2 (1 – 2) hr.; Accumulation ([9]; at either dose level (5mg, 10mg), days 8 and 21 vs day 1): no significant accumulation; concentration at 8 day ([9]; human, whole blood, oral, 5 mg): 0.0063 ± 0.0029 µg/mL; concentration at 21 day ([9]; human, whole blood, oral, 5 mg): 0.0057 ± 0.0023 µg/mL; half-life ([9]; human, whole blood, oral, 5 mg): 26.5 h; Cmax ([9]; human, whole blood, oral, 5 mg, Day 1 Cmax, 5 mg daily (n=12), whole blood): 0.0292 ± 0.0099 µg/mL; Cmax ([9]; human, whole blood, oral, 5 mg, Day 8 Cmax, 5 mg daily (n=12), whole blood): 0.0421 ± 0.0172 µg/mL; AUC(0-t) ([9]; human, whole blood, oral, 5 mg, Day 21 AUC0-24, 5 mg daily (n=12), whole blood): 0.205 ± 0.0874 µg·h/mL; concentration at 8 day [9, 13]: 0.0178 ± 0.0076 µg/mL; concentration at 21 day [9, 13]: 0.0137 ± 0.0092 µg/mL; AUC(0-t) ([9]; human, whole blood, oral, 10 mg, Day 8 AUC0-24, 10 mg daily (n=7), whole blood): 0.579 ± 0.186 µg·h/mL; AUC(0-t) ([9]; human, whole blood, oral, 10 mg, Day 21 AUC0-24, 10 mg daily (n=7), whole blood): 0.507 ± 0.208 µg·h/mL
